Test results taken from patent US11325938B2, “CD73 inhibitors” (ORIC Pharmaceuticals, Inc., priority 2018, dated 2022).

What follows are compounds tested against CD73 (Homo sapiens (Human), UniProt P21589) (assay: Biochemical assay: inhibition of CD73 activity (AMP hydrolysis, Malachite Green readout)). Settings: CD73 0.3208 nM, AMP 15 μM, 25 mM Tris-HCl pH 7.4, RT, absorbance 620 nm.
How it was run: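 Human CD73 (320 pM final) preincubated 15 min at RT with compounds (10-point ½-log titration from 100 μM, duplicates) in 25 mM Tris-HCl pH 7.4, 5 mM MgCl2, 0.01% Brij-35, 0.01% BSA. 15 μM AMP added, 10 min at RT; released phosphate read by Malachite Green absorbance; IC50 determined.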

CD73, sequence (P21589 27-574): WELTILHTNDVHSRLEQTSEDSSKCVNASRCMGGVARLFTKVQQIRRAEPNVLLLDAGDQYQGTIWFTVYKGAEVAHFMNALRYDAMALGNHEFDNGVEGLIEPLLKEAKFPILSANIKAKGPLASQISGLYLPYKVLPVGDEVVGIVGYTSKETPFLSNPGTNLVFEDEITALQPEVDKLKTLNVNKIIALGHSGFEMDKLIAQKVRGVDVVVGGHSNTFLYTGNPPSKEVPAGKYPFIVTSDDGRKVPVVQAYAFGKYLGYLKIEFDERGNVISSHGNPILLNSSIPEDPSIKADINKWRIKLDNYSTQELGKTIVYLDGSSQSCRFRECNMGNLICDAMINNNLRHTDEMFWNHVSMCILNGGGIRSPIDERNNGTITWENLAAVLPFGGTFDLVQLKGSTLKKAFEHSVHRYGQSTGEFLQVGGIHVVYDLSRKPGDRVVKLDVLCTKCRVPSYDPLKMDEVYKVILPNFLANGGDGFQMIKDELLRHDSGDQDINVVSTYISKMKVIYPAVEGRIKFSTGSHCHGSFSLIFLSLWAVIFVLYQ

Compound	IC50 [µM]
O=P(O)(O)C(CO)(CCO)OC[C@H]1O[C@@H](n2ncc3c(NC4CCCC4)nc(Cl)nc32)[C@H](O)[C@@H]1O (stereo partly drawn) [Example 36, (2-(((2R,3S,4R,5R)-5-(6-chloro-4-(cyclopentylamino)-1H-pyrazolo[3,4-d]pyrimidin-1-yl)-3,4-dihydroxytetrahydrofuran-2-yl)methoxy)-1,4-dihydroxybutan-2-yl)phosphonic acid]	≤ 0.1
CC(CO)(OC[C@H]1O[C@@H](n2ncc3c(NC4CCCC4)nc(Cl)nc32)[C@H](O)[C@@H]1O)P(=O)(O)O (stereo partly drawn) [Example 15, (2-(((2R,3S,4R,5R)-5-(6-Chloro-4-(cyclopentylamino)-1H-pyrazolo[3,4-d]pyrimidin-1-yl)-3,4-dihydroxytetrahydrofuran-2-yl)methoxy)-1-hydroxypropan-2-yl)phosphonic acid]	≤ 0.1
COC[C@@](C)(OC[C@H]1O[C@@H](n2ncc3c(NC4CCCC4)nc(Cl)nc32)[C@H](O)[C@@H]1O)P(=O)(O)O [Example 65, ((S)-2-(((2R,3S,4R,5R)-5-(6-chloro-4-(cyclopentylamino)-1H-pyrazolo[3,4-d]pyrimidin-1-yl)-3,4-dihydroxytetrahydrofuran-2-yl)methoxy)-1-methoxypropan-2-yl)phosphonic acid]	≤ 0.1
C[C@](CO)(OC[C@H]1O[C@@H](n2ncc3c(NC4CCC4)nc(Cl)nc32)[C@H](O)[C@@H]1O)P(=O)(O)O [Example 102, ((S)-2-(((2R,3S,4R,5R)-5-(6-chloro-4-(cyclobutylamino)-1H-pyrazolo[3,4-d]pyrimidin-1-yl)-3,4-dihydroxytetrahydrofuran-2-yl)methoxy)-1-hydroxypropan-2-yl)phosphonic acid]	≤ 0.1
COCC(C)(OC[C@@H]1C[C@@H](O)[C@H](n2ncc3c(NC4CCCC4)nc(Cl)nc32)O1)P(=O)(O)O (stereo partly drawn) [Example 70, (2-(((2S,4R,5R)-5-(6-chloro-4-(cyclopentylamino)-1H-pyrazolo[3,4-d]pyrimidin-1-yl)-4-hydroxytetrahydrofuran-2-yl)methoxy)-1-methoxypropan-2-yl)phosphonic acid]	0.1 to 1
CNc1nc(Cl)nc2c1cnn2[C@@H]1O[C@H](COC(CO)P(=O)(O)O)[C@@H](O)[C@H]1O (stereo partly drawn) [Example 29, (1-(((2R,3S,4R,5R)-5-(6-chloro-4-(methylamino)-1H-pyrazolo[3,4-d]pyrimidin-1-yl)-3,4-dihydroxytetrahydrofuran-2-yl)methoxy)-2-hydroxyethyl)phosphonic acid]	≤ 0.1
COCC(C)(OC[C@H]1O[C@@H](n2ncc3c(NCC4CC4)nc(Cl)nc32)[C@H](O)[C@@H]1O)P(=O)(O)O (stereo partly drawn) [Example 79, (2-(((2R,3S,4R,5R)-5-(6-chloro-4-((cyclopropylmethyl)amino)-1H-pyrazolo[3,4-d]pyrimidin-1-yl)-3,4-dihydroxytetrahydrofuran-2-yl)methoxy)-1-methoxypropan-2-yl)phosphonic acid]	≤ 0.1
C[C@@](CO)(OC[C@H]1O[C@@H](n2ncc3c(NC4CCC4)nc(Cl)nc32)[C@H](O)[C@@H]1O)P(=O)(O)O [Example 101, ((R)-2-(((2R,3S,4R,5R)-5-(6-chloro-4-(cyclobutylamino)-1H-pyrazolo[3,4-d]pyrimidin-1-yl)-3,4-dihydroxytetrahydrofuran-2-yl)methoxy)-1-hydroxypropan-2-yl)phosphonic acid]	≤ 0.1
O=P(O)(O)COC[C@H]1O[C@@H](n2nnc3c(NC4CCCC4)cc(Cl)nc32)[C@H](O)[C@@H]1O [Example 17, ((((2R,3S,4R,5R)-5-(5-Chloro-7-(cyclopentylamino)-3H-[1,2,3]triazolo[4,5-b]pyridin-3-yl)-3,4-dihydroxytetrahydrofuran-2-yl)methoxy)methyl)phosphonic acid]	0.1 to 1

Further lines, results first:

IC50 [µM]	Compound
≤ 0.1	O=P(O)(O)C(CO)(CO)OC[C@H]1O[C@@H](n2ncc3c(N[C@@H]4CCc5cc(F)ccc54)nc(Cl)nc32)[C@H](O)[C@@H]1O (racemic) [Example 176, rac-(2-(((2R,3S,4R,5R)-5-(6-chloro-4-(((R)-5-fluoro-2,3-dihydro-1H-inden-1-yl)amino)-1H-pyrazolo[3,4-d]pyrimidin-1-yl)-3,4-dihydroxytetrahydrofuran-2-yl)methoxy)-1,3-dihydroxypropan-2-yl)phosphonic acid]
≤ 0.1	NC(=O)OC[C@@](CO)(OC[C@H]1O[C@@H](n2ncc3c(NC4CCCC4)nc(Cl)nc32)[C@H](O)[C@@H]1O)P(=O)(O)O (racemic) [Example 215, rac-((R)-1-(carbamoyloxy)-2-(((2S,3R,4S,5S)-5-(6-chloro-4-(cyclopentylamino)-1H-pyrazolo[3,4-d]pyrimidin-1-yl)-3,4-dihydroxytetrahydrofuran-2-yl)methoxy)-3-hydroxypropan-2-yl)phosphonic acid]
≤ 0.1	COCC(C)(OC[C@H]1O[C@@H](n2cnc3c(NC4CCCC4)nc(Cl)nc32)[C@H](O)[C@@H]1O)P(=O)(O)O (stereo partly drawn) [Example 158, (2-(((2R,3S,4R,5R)-5-(2-chloro-6-(cyclopentylamino)-9H-purin-9-yl)-3,4-dihydroxytetrahydrofuran-2-yl)methoxy)-1-methoxypropan-2-yl)phosphonic acid]
≤ 0.1	O=P(O)(O)[C@](CO)(Cc1nn[nH]n1)OC[C@H]1O[C@@H](n2ncc3c(NC4CCCC4)nc(CO)nc32)[C@H](O)[C@@H]1O (racemic) [Example 217, rac-((R)-2-(((2S,3R,4S,5S)-5-(4-(cyclopentylamino)-6-(hydroxymethyl)-1H-pyrazolo[3,4-d]pyrimidin-1-yl)-3,4-dihydroxytetrahydrofuran-2-yl)methoxy)-1-hydroxy-3-(2H-tetrazol-5-yl)propan-2-yl)phosphonic acid]
≤ 0.1	C[C@@H](Nc1nc(Cl)nc2c1cnn2[C@@H]1O[C@H](COC(CO)(CO)P(=O)(O)O)[C@@H](O)[C@H]1O)c1ccc(F)cc1 (racemic) [Example 222, rac-(2-(((2R,3S,4R,5R)-5-(6-chloro-4-(((R)-1-(4-fluorophenyl)ethyl)amino)-1H-pyrazolo[3,4-d]pyrimidin-1-yl)-3,4-dihydroxytetrahydrofuran-2-yl)methoxy)-1,3-dihydroxypropan-2-yl)phosphonic acid]
≤ 0.1	CCOCC(COCC)(OC[C@H]1O[C@@H](n2ncc3c(NC4CCCC4)nc(Cl)nc32)[C@H](O)[C@@H]1O)P(=O)(O)O (racemic) [Example 185, rac-(2-(((2R,3S,4R,5R)-5-(6-chloro-4-(cyclopentylamino)-1H-pyrazolo[3,4-d]pyrimidin-1-yl)-3,4-dihydroxytetrahydrofuran-2-yl)methoxy)-1,3-diethoxypropan-2-yl)phosphonic acid]
≤ 0.1	CC(C)(O)C#Cc1nc(NC2CCCC2)c2cnn([C@@H]3O[C@H](COC(CO)(CO)P(=O)(O)O)[C@@H](O)[C@H]3O)c2n1 (racemic) [Example 224, rac-(2-(((2R,3S,4R,5R)-5-(4-(cyclopentylamino)-6-(3-hydroxy-3-methylbut-1-yn-1-yl)-1H-pyrazolo[3,4-d]pyrimidin-1-yl)-3,4-dihydroxytetrahydrofuran-2-yl)methoxy)-1,3-dihydroxypropan-2-yl)phosphonic acid]
